The target in the assay is Human VPS34 (Homo sapiens (Human), UniProt Q8NEB9). The assay can be described thus: Human VPS34 enzyme assay (Adapta TR-FRET). Conditions: compound concentration 1.11 μM; read-out: Percent Inhibition. The format is biochemical.
Sequence of Human VPS34 (Q8NEB9 whole entry): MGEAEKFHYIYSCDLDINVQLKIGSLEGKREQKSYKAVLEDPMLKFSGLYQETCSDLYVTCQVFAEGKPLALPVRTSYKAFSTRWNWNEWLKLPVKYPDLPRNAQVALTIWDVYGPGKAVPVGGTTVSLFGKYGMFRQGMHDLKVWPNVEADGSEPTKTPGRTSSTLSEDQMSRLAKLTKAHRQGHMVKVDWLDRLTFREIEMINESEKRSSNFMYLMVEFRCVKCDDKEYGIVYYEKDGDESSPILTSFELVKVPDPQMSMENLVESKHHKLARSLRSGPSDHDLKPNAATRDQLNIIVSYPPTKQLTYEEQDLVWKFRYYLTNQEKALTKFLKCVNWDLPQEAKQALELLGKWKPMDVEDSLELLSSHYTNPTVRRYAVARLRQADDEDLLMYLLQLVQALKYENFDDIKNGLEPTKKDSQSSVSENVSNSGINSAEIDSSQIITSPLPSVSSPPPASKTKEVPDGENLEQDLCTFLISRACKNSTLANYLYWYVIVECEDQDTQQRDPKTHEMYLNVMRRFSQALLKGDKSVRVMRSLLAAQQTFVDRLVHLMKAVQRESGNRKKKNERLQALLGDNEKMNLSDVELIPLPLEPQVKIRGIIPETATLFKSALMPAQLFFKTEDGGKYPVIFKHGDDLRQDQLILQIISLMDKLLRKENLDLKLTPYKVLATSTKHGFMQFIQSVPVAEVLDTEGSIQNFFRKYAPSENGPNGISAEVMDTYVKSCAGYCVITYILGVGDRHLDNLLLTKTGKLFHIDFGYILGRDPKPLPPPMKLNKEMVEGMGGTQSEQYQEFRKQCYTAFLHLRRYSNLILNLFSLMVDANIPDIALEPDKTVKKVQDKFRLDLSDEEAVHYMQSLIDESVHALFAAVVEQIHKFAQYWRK
In general, inhibition refers to the change of the read-out against control, counted positive when it falls. On to `CC(=O)Nc1cc(-c2cnc(Cl)c(NS(=O)(=O)c3ccc(Br)cc3F)c2C)ccn1` [Compound I-444, N-(5-{[(4-bromo-2-fluorophenyl)sulfonyl]amino}-6-chloro-4-methyl-3,4′-bipyridin-2′-yl)acetamide], for which the inhibition at 1.11 µM was > 99%.

For the compound `CC(=O)Nc1cc(-c2cnc(C)c(NS(=O)(=O)C3CCCCC3)c2)ccn1` [Compound I-72, N-{5-[(cyclohexylsulfonyl)amino]-6-methyl-3,4′-bipyridin-2′-yl}acetamide], the inhibition at 1.11 µM is > 99%.

On to `CC(=O)Nc1cc(-c2cnc(C)c(C(=O)Nc3ccc(F)cc3F)c2)ccn1` [Compound I-431, 2′-acetamido-N-(2,4-difluorophenyl)-6-methyl-3,4′-bipyridine-5-carboxamide], for which the inhibition at 1.11 µM is 74%.

Turning to `CCN(CC)S(=O)(=O)c1cc(-c2ccnc(NC(C)=O)c2)cnc1N` [Compound I-124, N-[6-amino-5-(diethylsulfamoyl)-3,4′-bipyridin-2′-yl]acetamide], the inhibition at 1.11 µM was 91%.

As to `Cc1nccc(Nc2cc(-c3cncc(C(=O)N(C)C45CC(C4)C5)c3)ccn2)n1` [Compound I-234, N-(bicyclo[1.1.1]pent-1-yl)-N-methyl-2′-[(2-methylpyrimidin-4-yl)amino]-3,4′-bipyridine-5-carboxamide], the inhibition at 1.11 µM was found to be 90%.

Consider `CC(=O)Nc1cc(-c2cnc(C)c(NS(=O)(=O)c3ccc(F)cc3F)c2)c(F)cn1` [Compound I-161, N-(5-{[(2,4-difluorophenyl)sulfonyl]amino}-5′-fluoro-6-methyl-3,4′-bipyridin-2′-yl)acetamide], for which the inhibition at 1.11 µM is > 99%.

For the compound `CC(=O)Nc1cc(-c2cnc(C)c(NS(=O)(=O)N3CCC(F)(F)CC3)c2)ccn1` [Compound I-374, N-(5-{[(4,4-difluoropiperidin-1-yl)sulfonyl]amino}-6-methyl-3,4′-bipyridin-2′-yl)acetamide], the inhibition at 1.11 µM is > 99%.

As to `CC(=O)Nc1cc(-c2cnc(N)c(C(=O)N3CCC(C)CC3)c2)ccn1` [Compound I-81, N-{6-amino-5-[(4-methylpiperidin-1-yl)carbonyl]-3,4′-bipyridin-2′-yl}acetamide], the inhibition at 1.11 µM was > 99%.

Turning to `CC(=O)Nc1cc(-c2cncc(N3CCCCS3(=O)=O)c2)ccn1` [Compound I-320, N-[5-(1,1-dioxido-1,2-thiazinan-2-yl)-3,4′-bipyridin-2′-yl]acetamide], the inhibition at 1.11 µM turned out to be 95%.

For `Cc1ncc(-c2ccnc(NC(=O)OCc3ccn(C)n3)c2)cc1NS(=O)(=O)c1ccc(F)cc1F` [Compound I-326, (1-methyl-1H-pyrazol-3-yl)methyl (5-{[(2,4-difluorophenyl)sulfonyl]amino}-6-methyl-3,4′-bipyridin-2′-yl)carbamate], the inhibition at 1.11 µM worked out at 96%.

As for `O=C(c1cncc(-c2ccnc(Nc3ccnc(C4CC4)n3)c2)c1)N1CC(F)(F)C1` [Compound I-413], the inhibition at 1.11 µM was > 99%.

Take `CC(=O)Nc1cc(-c2cnc(N)c(S(=O)(=O)N(C)c3ccccc3)c2)ccn1` [Compound I-37, N-{6-amino-5-[methyl(phenyl)sulfamoyl]-3,4′-bipyridin-2′-yl}acetamide]: the inhibition at 1.11 µM was > 99%.

For the compound `CC(=O)Nc1cc(-c2cnc(C)c(NS(=O)(=O)c3ccccc3)c2)ccn1` [Compound I-84, N-{6-methyl-5-[(phenylsulfonyl)amino]-3,4′-bipyridin-2′-yl}acetamide], the inhibition at 1.11 µM is > 99%.

As to `CC(=O)Nc1cc(-c2cnc(C)c(NC(C)=O)c2)ccn1` [Compound I-193, N,N′-(6-methyl-3,4′-bipyridine-2′,5-diyl)diacetamide], the inhibition at 1.11 µM was > 99%.

Consider `CC(=O)Nc1cc(-c2cnc(C)c(NS(=O)(=O)c3cccc(C)c3F)c2)ccn1` [Compound I-339, N-(5-{[(2-fluoro-3-methylphenyl)sulfonyl]amino}-6-methyl-3,4′-bipyridin-2′-yl)acetamide], for which the inhibition at 1.11 µM turned out to be 98%.

As for `Cc1c(-c2ccnc(Nc3ccnc(C4CC4)n3)c2)cnc(Cl)c1C(=O)N1CCC1` [Compound I-361, azetidin-1-yl(6-chloro-2′-((2-cyclopropylpyrimidin-4-yl)amino)-4-methyl-[3,4′-bipyridin]-5-yl)methanone], the inhibition at 1.11 µM was found to be 90%.

As for `CC(=O)Nc1cc(-c2cnc(Cl)c(NS(=O)(=O)N3CCCC3)c2C)ccn1` [Compound I-488, N-{6-chloro-4-methyl-5-[(pyrrolidin-1-ylsulfonyl)amino]-3,4′-bipyridin-2′-yl}acetamide], the inhibition at 1.11 µM is > 99%.

As for `CCN(CC)C(=O)c1cc(-c2ccnc(Nc3ccnc(C)n3)c2)cnc1C` [Compound I-302, N,N-diethyl-6-methyl-2′-[(2-methylpyrimidin-4-yl)amino]-3,4′-bipyridine-5-carboxamide], the inhibition at 1.11 µM worked out at 83%.

As to `CC(=O)Nc1cc(-c2cnc(N)c(S(=O)(=O)Nc3ccc(F)cc3F)c2)ccn1` [Compound I-170, N-{6-amino-5-[(2,4-difluorophenyl)sulfamoyl]-3,4′-bipyridin-2′-yl}acetamide], the inhibition at 1.11 µM was > 99%.

On to `Cc1c(-c2ccnc(Nc3ccnc(C4CC4)n3)c2)cnc(Cl)c1C(=O)O` [Compound I-369, 6-chloro-2′-((2-cyclopropylpyrimidin-4-yl)amino)-4-methyl-[3,4′-bipyridine]-5-carboxylic acid], for which the inhibition at 1.11 µM stood at 97%.

For the compound `Cc1nc(Nc2cc(-c3cnc(C)c(NS(=O)(=O)N(C)C)c3)ccn2)ccc1C#N` [Compound I-229, N-{2′-[(5-cyano-6-methylpyridin-2-yl)amino]-6-methyl-3,4′-bipyridin-5-yl}-N,N-dimethylsulfuric diamide], the inhibition at 1.11 µM is > 99%.

As for `CC(=O)Nc1cc(-c2cnc(N)c(S(=O)(=O)NCC3CCCCC3)c2)ccn1` [Compound I-183, N-{6-amino-5-[(cyclohexylmethyl)sulfamoyl]-3,4′-bipyridin-2′-yl}acetamide], the inhibition at 1.11 µM was > 99%.

Regarding `CC(=O)Nc1cc(-c2cnc(C)c(N(C)S(=O)(=O)c3ccccc3)c2)ccn1` [Compound I-46, N-{6-methyl-5-[methyl(phenylsulfonyl)amino]-3,4′-bipyridin-2′-yl}acetamide], the inhibition at 1.11 µM is > 99%.

Take `CNc1ncc(-c2ccnc(NC(C)=O)c2)cc1N1CCCS1(=O)=O` [Compound I-132, N-[5-(1,1-dioxidoisothiazolidin-2-yl)-6-(methylamino)-3,4′-bipyridin-2′-yl]acetamide]: the inhibition at 1.11 µM is > 99%.

Regarding `COc1ccc(S(=O)(=O)Nc2cc(-c3ccnc(NC(C)=O)c3)cnc2C)cc1` [Compound I-165, N-(5-{[(4-methoxyphenyl)sulfonyl]amino}-6-methyl-3,4′-bipyridin-2′-yl)acetamide], the inhibition at 1.11 µM was > 99%.

For `CC(=O)Nc1cc(-c2cnc(N)c(C(=O)Nc3cc(C)cnn3)c2)ccn1` [Compound I-121, 2′-acetamido-6-amino-N-(5-methylpyridazin-3-yl)-3,4′-bipyridine-5-carboxamide], the inhibition at 1.11 µM was > 99%.

For `CC(=O)Nc1cc(-c2cnc(C)c(NS(=O)(=O)c3cccc(C(C)(C)C)c3)c2)ccn1` [Compound I-70, N-(5-{[(3-tert-butylphenyl)sulfonyl]amino}-6-methyl-3,4′-bipyridin-2′-yl)acetamide], the inhibition at 1.11 µM was > 99%.

In the case of `CC(=O)Nc1cc(-c2cnc(C)c(NS(=O)(=O)c3cn(C)nc3C(F)(F)F)c2)ccn1` [Compound I-18, N-[6-methyl-5-({[1-methyl-3-(trifluoromethyl)-1H-pyrazol-4-yl]sulfonyl}amino)-3,4′-bipyridin-2′-yl]acetamide], the inhibition at 1.11 µM is > 99%.

On to `CC(=O)Nc1cc(-c2cncc(/C=C/C(=O)c3ccc(F)cc3)c2)ccn1` [Compound I-188, N-{5-[(1E)-3-(4-fluorophenyl)-3-oxoprop-1-en-1-yl]-3,4′-bipyridin-2′-yl}acetamide], for which the inhibition at 1.11 µM amounted to 98%.

For `CNS(=O)(=O)Nc1cc(-c2ccnc(NC(C)=O)c2)cnc1C` [Compound I-455, N-{6-methyl-5-[(methylsulfamoyl)amino]-3,4′-bipyridin-2′-yl}acetamide], the inhibition at 1.11 µM was > 99%.

With `CC(=O)Nc1cc(-c2cnc(N)c(S(=O)(=O)NC34CC(C3)C4)c2)ccn1` [Compound I-11, N-[6-amino-5-(bicyclo[1.1.1]pent-1-ylsulfamoyl)-3,4′-bipyridin-2′-yl]acetamide], the inhibition at 1.11 µM was > 99%.

`COc1ccc(S(=O)(=O)Nc2cc(-c3ccnc(NC(C)=O)c3)cnc2C)c(F)c1` [Compound I-163, N-(5-{[(2-fluoro-4-methoxyphenyl)sulfonyl]amino}-6-methyl-3,4′-bipyridin-2′-yl)acetamide]: the inhibition at 1.11 µM was > 99%.

As to `CC(=O)Nc1cc(-c2cnc(N)c(S(=O)(=O)Nc3cccc(Cl)c3)c2)ccn1` [Compound I-97, N-{6-amino-5-[(3-chlorophenyl)sulfamoyl]-3,4′-bipyridin-2′-yl}acetamide], the inhibition at 1.11 µM was > 99%.

With `CC(=O)Nc1cc(-c2cnc(N)c(C(=O)N3CCN(C)CC3)c2)ccn1` [Compound I-79, N-{6-amino-5-[(4-methylpiperazin-1-yl)carbonyl]-3,4′-bipyridin-2′-yl}acetamide], the inhibition at 1.11 µM was > 99%.

As for `CC(=O)Nc1cc(-c2cnc(Cl)c(S(=O)(=O)NC(C)(C)C)c2C)ccn1` [Compound I-410, N-[5-(tert-butylsulfamoyl)-6-chloro-4-methyl-3,4′-bipyridin-2′-yl]acetamide], the inhibition at 1.11 µM was found to be 96%.

Regarding `CC(=O)Nc1cc(-c2cnc(C)c(NS(=O)(=O)N(C)C)c2)ccn1` [Compound I-32, N-{5-[(dimethylsulfamoyl)amino]-6-methyl-3,4′-bipyridin-2′-yl}acetamide], the inhibition at 1.11 µM was > 99%.

With `CC(=O)Nc1cc(-c2cnc(N)c(S(=O)(=O)Nc3cccnc3)c2)ccn1` [Compound I-204, N-[6-amino-5-(pyridin-3-ylsulfamoyl)-3,4′-bipyridin-2′-yl]acetamide], the inhibition at 1.11 µM is > 99%.

For `CC(=O)Nc1cc(-c2cc(NS(=O)(=O)N(C)C)c3ccnn3c2)ccn1` [Compound I-476, N-(4-{4-[(dimethylsulfamoyl)amino]pyrazolo[1,5-a]pyridin-6-yl}pyridin-2-yl)acetamide], the inhibition at 1.11 µM came out at 87%.
